Results: article PMC10268594 (2023)

Legend:
Experiment in all cases: single-molecule MspA-M2 nanopore kinetics
[1] = tested on: Theophylline-binding aptamer (RNA, aptamer) AGUGAUACCAGCAUCGUCUUGAUGCCCUUGGCAGCACU; settings: 1 M KCl; +180 mV, aptamer cis, 25 µM theophylline trans
[2] = tested on: Serotonin-binding aptamer (DNA, aptamer) CGACTGGTAGGCAGATAGGGGAAGCTGATTCGATGCGTGGGTCG; settings: 1 M KCl; +120 mV, aptamer cis, serotonin trans
[3] = tested on: Dopamine-binding aptamer (DNA, aptamer) CGACGCCAGTTTGAAGGTTCGTTCGCAGGTGTGGAGTGACGTCG; settings: 1 M KCl; 10 mM Tris pH 7.4, +180 mV, aptamer cis, 25 µM dopamine trans

## Cn1c(=O)c2[nH]cnc2n(C)c1=O
[1]
  Kd: 72 ± 17 µM

## NCCc1c[nH]c2ccc(O)cc12
[2]
  Kd: 9.0 ± 1.3 µM

## NCCc1ccc(O)c(O)c1
[3]
  Kd: 27 ± 3 µM
